In data set [1] the test system is malaria mosquito (Anopheles gambiae). Nature of the data set: Five-minute exposure bioassay, WHO Adult Mosquito Susceptibility Test Kit, treated filter paper. The format is in vivo. The following applies: for KT 50 / KT 95 / % knock down after 10′ / % knock down after 15′ / % knock down after 20′ / % knock down after 25′ / % knock down after 30′ / % knock down after 45′ / % knock down after 60′ / % mortality 1 d: Table 80, filter paper (mg/m^2); for % mortality 1 d: mortality 24 hours post exposure; for % knock down after 5′: Table 80, technical sample on filter paper (mg/m^2). How it is done: The bioassays were carried out using the WHO Adult Mosquito Susceptibility Test Kit, (WHO/VBC 81.805, 1981) with plastic cylinders (4.5 cm diameter, 12 cm height). All bioassays were done using preferably female sugar fed Anopheles gambiae mosquitoes. Knock down was recorded after at 5, 10, 15, 20, 25, 30, 45 and 60 minutes, when the mosquitoes were supplied with a 5% sugar water source for 24 hours. Mortality was recorded 24 hours post exposure. Each test consisted of three replicates from which the mean values were calculated. The insecticides (all technical grades) were applied as 2 ml acetone solutions onto filter papers (12 cm×15 cm).

In data set [2] the test system is tropical house mosquito Culex quinquefasciatus (adults, 3 days old). Briefly: Efficacy of formulations on surfaces (glazed/unglazed tiles, plywood), ten 3 day old mosquitoes, 3 min exposure. The format is in vivo. The following applies: Culex quinquefasciatus, 3 min exposure, mostly 0.1% bendiocarb + 1% additive on glazed tiles. How it is done:
The ingredients were diluted in acetone to give a concentration which corresponds to the desired quantity of a.i./m^2. A 1 ml quantity of the solution was applied by pipette onto the 15 cm×15 cm surfaces without treating the outer edge of 1 cm.
Ten 3 day old Culex quinquefasciatus mosquitoes were exposed to each treatment for 3 minutes under a perforated petri dish, and then a clean untreated white paper index card was moved between treated surface and petri dish. A water-soaked cotton pad was applied immediately after.
Each test consisted of three replicates (three batches of ten mosquitoes were exposed for three minutes to the same surface, each one hour later), of which the mean values are calculated.
The test insects were Culex quinquefasciatus (adults, 3 days old). The compositions were evaluated for their ability to provide effective knock down after 3, 9, 15, and 30 minutes, 1, 2, 3, 4 and 24 hours (mortality). The experiments were performed in triplicate on glazed tile, but not repeated on wood.
Test Insects are Culex quinquefasciatus (adults, 3 days old). The Application provides the technical compounds were dissolved in acetone and applied as 1 ml solutions onto glazed tiles (15 cm×15 cm). An evaluation is provided at knock down after 3, 9, 15, and 30 minutes, 1, 2, 3, 4 and 24 hours (mortality). There are 3 replicates.
Test Insects: Culex quinquefasciatus (adults, 3 days old)
Application: The technical compounds were dissolved in acetone and applied as 1 ml solutions onto glazed tiles (15 cm×15 cm).
Evaluation: Knock down after 3, 9, 15, and 30 minutes, 1, 2, 3, 4 and 24 hours (mortality) […]
Application: The active ingredients were applied as 1 ml acetone solutions onto glazed tiles (15 cm×15 cm) […]
For the mosquitoes, the USDA Petri Dish Method is used. Ten 3 day old Culex quinquefasciatus mosquitoes are exposed to each treatment for 3 minutes under a perforated petri dish and then a clean untreated white paper index card is moved between treated surface and petri dish. A water-soaked cotton pad is applied immediately after. […]

“Also recorded” adds a separate entry of the source.

As to `CNC(=O)Oc1cccc2c1OC(C)(C)O2` [5 mg Bendiocarb], in data set [1], the “KT 50” value is greater than 60 min, the “KT 95” value is greater than 60 min, the “% knock down after 10′” value came out at 6% and the “% knock down after 15′” value was found to be 6%. For the same compound, in data set [1], the “% knock down after 20′” value came to 6%, the “% knock down after 25′” value was 6%, the “% knock down after 30′” value stood at 6% and the “% knock down after 45′” value came out at 6%. In data set [1], the “% knock down after 60′” value amounted to 6%, the “% mortality 1 d” value came to 12% and the “% knock down after 5′” value worked out at 6%.
`CC1(C)[C@H](C(=O)O[C@H](C#N)c2cccc(Oc3ccccc3)c2)[C@@H]1C=C(Br)Br` [5 mg DTM]: in data set [1], the “KT 50” value is greater than 60 min, the “KT 95” value was greater than 60 min, the “% knock down after 10′” value is recorded as 6% and the “% knock down after 15′” value was 4%. Also, in data set [1], the “% knock down after 20′” value worked out at 6%, the “% knock down after 25′” value turned out to be 6%, the “% knock down after 30′” value worked out at 7% and the “% knock down after 45′” value is 15%. For the same compound, in data set [1], the “% knock down after 60′” value is given as 19%, the “% mortality 1 d” value amounted to 13% and the “% knock down after 5′” value came to 6%.
On to `CNC(=O)Oc1cccc2c1OC(C)(C)O2` [10 mg Bendiocarb], for which, in data set [1], the “KT 50” value was greater than 60 min, the “KT 95” value was greater than 60 min, the “% knock down after 10′” value is given as 2% and the “% knock down after 15′” value is listed as 2%. In data set [1], the “% knock down after 20′” value came out at 27%, the “% knock down after 25′” value is 2%, the “% knock down after 30′” value is recorded as 2% and the “% knock down after 45′” value was found to be 2%. In addition, in data set [1], the “% knock down after 60′” value was found to be 2%, the “% mortality 1 d” value stood at 9% and the “% knock down after 5′” value was determined as 2%.
As to `CC1(C)[C@H](C(=O)O[C@H](C#N)c2cccc(Oc3ccccc3)c2)[C@@H]1C=C(Br)Br` [10 mg DTM], in data set [1], the “KT 50” value is greater than 60 min, the “KT 95” value is greater than 60 min, the “% knock down after 10′” value stood at 2% and the “% knock down after 15′” value amounted to 2%. Besides, in data set [1], the “% knock down after 20′” value is listed as 2%, the “% knock down after 25′” value was 5%, the “% knock down after 30′” value came to 9% and the “% knock down after 45′” value is 18%. Besides, in data set [1], the “% knock down after 60′” value amounted to 26%, the “% mortality 1 d” value came out at 17% and the “% knock down after 5′” value stood at 0%.
Take `CNC(=O)Oc1cccc2c1OC(C)(C)O2` [20 mg Bendiocarb]: in data set [1], the “KT 50” value is greater than 60 min, the “KT 95” value is greater than 60 min, the “% knock down after 10′” value was determined as 6% and the “% knock down after 15′” value was found to be 4%. In data set [1], the “% knock down after 20′” value is 6%, the “% knock down after 25′” value was 13%, the “% knock down after 30′” value was found to be 13% and the “% knock down after 45′” value is 20%. For the same compound, in data set [1], the “% knock down after 60′” value is recorded as 21%, the “% mortality 1 d” value is on record as 27% and the “% knock down after 5′” value was 3%.
With `CC1(C)C(C=C(Br)Br)C1C(=O)OC(C#N)c1cccc(Oc2ccccc2)c1` (stereo not shown) [20 mg DTM], in data set [1], the “KT 50” value was found to be 21 min, the “KT 95” value was greater than 60 min, the “% knock down after 10′” value was 23% and the “% knock down after 15′” value is recorded as 39%. For the same compound, in data set [1], the “% knock down after 20′” value is reported as 45%, the “% knock down after 25′” value was determined as 52%, the “% knock down after 30′” value is 66% and the “% knock down after 45′” value was 79%. Also, in data set [1], the “% knock down after 60′” value was 86%, the “% mortality 1 d” value is 75% and the “% knock down after 5′” value is reported as 9%.
In the case of `COC(=O)CCCCCCCCC(=O)OC` [Derivative 1, Dimethyl sebacate], the “efficacy enhancement of the insecticide by the additive (summary in words)” value (“efficacy enhancement of the insecticide” for short) in data set [2] (details as worded) is listed as “acted weaker in both tests”; in data set [2] (details as worded, listed as Dimethyl sebacate) it was “no efficacy enhancement”.
As to `O=C(O)CCCCCCCCC(=O)O` [Derivative 2, Sebacic acid], the “efficacy enhancement of the insecticide” value in data set [2] (details as worded, listed as Sebacic acid) was “no efficacy enhancement”; in data set [2] (details as worded, listed as derivative 2), “acted weaker in both tests”.
As to `O=C(CCCCCCCCC(=O)OCc1ccccc1)OCc1ccccc1` [Derivative 3, Sebacic acid dibenzyl ester], the “efficacy enhancement of the insecticide” value is given as “superior to Compound A (first test) or equal (second test)” in data set [2] (details as worded) and “superior to Compound A; also recorded: improved markedly the efficacy of bendiocarb” in data set [2] (details as worded, listed as Sebacic acid dibenzyl ester).
`O=C(CCCCCCCCC(=O)ON1C(=O)CCC1=O)ON1C(=O)CCC1=O` [Derivative 4, Sebacic acid-bis-(N-succinimidyl)ester]: the “efficacy enhancement of the insecticide” value is reported as “weaker as Compound A in both tests” in data set [2] (details as worded) and “equivalent to Compound A” in data set [2] (details as worded, listed as Sebacic acid-bis-(N-succinimidyl)ester).
On to `CCCCCCCCON1C(C)(C)CC(OC(=O)CCCCCCCCC(=O)OC2CC(C)(C)N(OCCCCCCCC)C(C)(C)C2)CC1(C)C` [Derivative 5, Bis(1-octyloxy-2,2,6,6-tetramethyl-4-piperidyl)sebacate], for which the “efficacy enhancement of the insecticide” value is “weaker as Compound A in both tests” in data set [2] (details as worded) and “inhibited the efficacy of bendiocarb” in data set [2] (details as worded, listed as bis(1-octyloxy-2,2,6,6-tetramethyl-4-piperidyl)sebacate).
As for `CC1(C)CC(OC(=O)CCCCCCCCC(=O)OC2CC(C)(C)NC(C)(C)C2)CC(C)(C)N1` [Derivative 6, Bis(2,2,6,6-tetramethyl-4-piperidyl)sebacate], the “efficacy enhancement of the insecticide” value is “inhibited the efficacy of bendiocarb in both tests” in data set [2] (details as worded) and “inhibited the efficacy of bendiocarb” in data set [2] (details as worded, listed as bis(2,2,6,6-tetramethyl-4-piperidyl)sebacate).
Take `CC1(C)CC(O)CC(C)(C)N1` [Derivative 7, 4-Hydroxy-2,2,6,6-tetramethylpiperidine]: the “efficacy enhancement of the insecticide” value in data set [2] (details as worded) was “superior to Compound A in the first test and inferior in the second test”.
Take `CN1C(C)(C)CC(O)CC1(C)C` [Derivative 8, 1,2,2,6,6-Pentamethyl-4-piperidinol]: the “efficacy enhancement of the insecticide” value in data set [2] (details as worded) is given as “acted weaker in both tests”; in data set [2] (details as worded, listed as 1,2,2,6,6-Pentamethyl-4-piperidinol), “no efficacy enhancement”.
Take `CC1(C)CC(O)CC(C)(C)N1[O]` [Derivative 9, 4-Hydroxy-2,2,6,6 tetramethylpiperidin-1-oxyl]: the “efficacy enhancement of the insecticide” value in data set [2] is listed as “acted weaker in both tests”; in data set [2] (listed as 4-Hydroxy-2,2,6,6 tetramethylpiperidin-1-oxyl (free radical)) it was “inhibited the efficacy of bendiocarb”.
Consider `O=C1O[C@H]([C@@H](O)CO)C(O)=C1O` [ascorbic acid], for which the “efficacy enhancement of the insecticide” value in data set [2] (details as worded) was “complete decrease of efficacy”.
`O=C(O)CC(O)(CC(=O)O)C(=O)O` [citric acid]: the “efficacy enhancement of the insecticide” value in data set [2] (details as worded) is recorded as “better efficacy of bendiocarb alone”.

The values are drawn from patent US9028856B2, “Synergistic pesticide compositions” (priority 2008, dated 2015).
